Each structure is given as a SMILES string.

The source of these data is US11691984B2, “Compounds and methods for DCAF-mediated protein degradation” (The Scripps Research Institute, priority 2018, dated 2023).

The nature of series [1]: Cell viability assay (Cell Titer Glo). Particulars: human, HEK293T cells, 24 hours, read-out: cytotoxicity IC50. Type of series: cell-based, human. As to the method:
HEK293T cells were seeded in 96-well clear bottom white plate (Corning) at 3×10^4 cells per well in 100 μL of DMEM medium and grown for 24 h. The cells were treated with 0.625, 1.25, 2.5, 5, 10, 20 and 40 μM of KB02-SLF or KB02-JQ1 (DMSO stock, final DMEM concentration is 0.1% (v/v)) in 100 μL of DMEM medium for 24 h. 50 μL of Cell Titer Glo reagent (Promega) was added to each well and incubate for 10 min at room temperature. The luminescence was read on CLARIOstar (BMG LAB TECH).
A general note: ATP-based viability assays read luminescence as a measure of living cells.

The target in a further series is T1, ACAT1 (Homo sapiens, UniProt P24752).
T1 construct: endogenous in cells; host or cells: HEK293T
T1 sequence (P24752 34-427): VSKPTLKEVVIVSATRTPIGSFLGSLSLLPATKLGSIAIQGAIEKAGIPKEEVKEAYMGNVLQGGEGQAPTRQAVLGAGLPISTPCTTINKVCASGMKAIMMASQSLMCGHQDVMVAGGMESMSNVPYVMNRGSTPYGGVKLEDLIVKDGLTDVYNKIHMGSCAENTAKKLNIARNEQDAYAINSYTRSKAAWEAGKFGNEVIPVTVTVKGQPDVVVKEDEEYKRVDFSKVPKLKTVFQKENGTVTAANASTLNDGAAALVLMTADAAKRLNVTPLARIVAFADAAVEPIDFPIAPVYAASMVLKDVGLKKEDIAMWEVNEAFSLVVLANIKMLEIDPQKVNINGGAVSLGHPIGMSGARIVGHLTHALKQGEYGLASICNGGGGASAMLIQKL
The experiment in a line: Competitive ABPP (TMT) of cysteine engagement in ACAT1. Type of series: cell-based. The note with it: HEK293T, 1.5 h. On the procedure: HEK293T cells were treated with DMSO (four biological replicates), 2 μM KB02-SLF (three biological replicates) or 20 μM KB02-JQ1 (three biological replicates) for 1.5 h (ten samples in total). Cells were collected, washed once with PBS and lysed in PBS by sonication (40%, 4, 20 pulses). Samples were clarified by centrifugation for 10 min at 8,000 g. Lysate was adjusted to 1.0 mg/mL in 500 μL. Samples were labeled with 100 μM iodoacetamide alkyne (5 μL of 10 mM stock in DMSO) at room temperature for 1 hour, conjugated by CuACC to desthiobiotin azide (10 μL of 5 mM stock in DMSO, final concentration=100 tris(2-carboxyethyl)phosphine hydrochloride (TCEP, 10 μL of 50 mM stock in H2O, final concentration=1 mM), TBTA (30 μL of 1.7 mM stock in 4:1 tBuOH:DMSO, final concentration=100 μM) and CuSO4 (10 μL of 50 mM stock in H2O, final concentration=1 mM). The samples were allowed to react for 1 hour at room temperature. Proteins were precipitated by adding 3.5 mL of H2O, 4 mL of methanol and 1.5 mL of chloroform, followed by centrifugation at 5,000 g for 15 min (4° C.). After aspirating the top layer, the protein pellets with bottom layer were washed with 8 mL cold methanol by centrifugation at 5,000 g for 15 min (4° C.). […]
The samples were analyzed in Orbitrap Fusion Tribrid mass spectrometer (Thermo Scientific) coupled to UltiMate 3000 HPLC system (Thermo Scientific). […]

With `Cc1sc2c(c1C)C(c1ccc(Cl)cc1)=N[C@@H](CC(=O)NCCOCCOCCNC(=O)COc1ccc3c(c1)CCCN3C(=O)CCl)c1nnc(C)n1-2` [KB02-JQ1, (S)-2-((1-(2-chloroacetyl)-1,2,3,4-tetrahydroquinolin-6-yl)oxy)-N-(2-(2-(2-(2-(4-(4-chlorophenyl)-2,3,9-trimethyl-6H-thieno[3,2-f][1,2,4]triazolo[4,3-a][1,4]diazepin-6-yl)acetamido)ethoxy)ethoxy)ethyl)acetamide], the IC50 (usually the point on the concentration scale where inhibition reaches its midpoint) at 24 h in series [1] is more than 50 µM. Moreover, the “engagement of ACAT1 C126” value on ACAT1 (KB02-JQ1 20 μM) is listed as “fully engaged”.

For `CCC(C)(C)C(=O)C(=O)N1CCCC[C@H]1C(=O)O[C@H](CCc1ccc(OC)c(OC)c1)c1cccc(NC(=O)CCOCCOCCNC(=O)COc2ccc3c(c2)CCCN3C(=O)CCl)c1` [KB02-SLF, (R)-1-(3-(3-(2-(2-(2-((1-(2-chloroacetyl)-1,2,3,4-tetrahydroquinolin-6-yl)oxy)acetamido)ethoxy)ethoxy)propanamido)phenyl)-3-(3,4-dimethoxyphenyl)propyl (S)-1-(3,3-dimethyl-2-oxopentanoyl)piperidine-2-carboxylate], the IC50 at 24 h in series [1] was 14 ± 1.1 µM. Moreover, the “engagement of ACAT1 C126” value on ACAT1 (KB02-SLF 2 μM) was “fully engaged”.
